# Assay results reported in the supplement of paper PMC10307832.
# What was measured:
# Experiment in all cases: relative viability (nuclei count vs DMSO), 5 days (fraction); higher = more cells survive
# SW 1573 = test system: SW 1573
# In short: (§1)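 Lung cancer cell lines were pin-tool dosed in 1536-well plates on the day after seeding, with either a lone drug or a fixed anchor-drug dose plus five library-drug doses (not always all listed) in √10 steps. Nuclei were counted on 4× images after 5 days. Relative viability is the ratio of treated-well to vehicle-well nuclei counts, with each value a median of duplicate plates.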
# NCI-H647 = test system: NCI-H647
# In short: as §1
# NCI-H520 = test system: NCI-H520
# In short: as §1
# HOP-62 = test system: HOP-62
# In short: as §1
# NCI-H441 = test system: NCI-H441
# In short: as §1
# LOU-NH91 = test system: LOU-NH91
# In short: as §1
# HCC-44 = test system: HCC-44
# In short: as §1
# NCI-H1437 = test system: NCI-H1437
# In short: as §1
# NCI-H2126 = test system: NCI-H2126
# In short: as §1
# NCI-H1793 = test system: NCI-H1793
# In short: as §1
# ChaGo-K-1 = test system: ChaGo-K-1
# In short: as §1
# NCI-H2170 = test system: NCI-H2170
# In short: as §1
# LCLC-103H = test system: LCLC-103H
# In short: as §1
# NCI-H2023 = test system: NCI-H2023
# In short: as §1
# NCI-H460 = test system: NCI-H460
# In short: as §1
# NCI-H2009 = test system: NCI-H2009
# In short: as §1
# NCI-H650 = test system: NCI-H650
# In short: as §1
# NCI-H2405 = test system: NCI-H2405
# In short: as §1
# PC-14 = test system: PC-14
# In short: as §1
# NCI-H23 = test system: NCI-H23
# In short: as §1
# EPLC-272H = test system: EPLC-272H
# In short: as §1
# EMC-BAC-2 = test system: EMC-BAC-2
# In short: as §1
# NCI-H2347 = test system: NCI-H2347
# In short: as §1
# NCI-H727 = test system: NCI-H727
# In short: as §1
smiles,measurement,setting,value
CCCCCCCCCCCC1=C(O)C(=O)C=C(O)C1=O [Embelin] + CS(=O)(=O)N1CCN(Cc2cc3nc(-c4cccc5[nH]ncc45)nc(N4CCOCC4)c3s2)CC1 [Pictilisib] (partner 1 µM),relative viability,SW 1573; first compound 0.08 µM,0.475
same,relative viability,SW 1573; first compound 0.8 µM,0.546
same,relative viability,SW 1573; first compound 2.53 µM,0.555
same,relative viability,SW 1573; first compound 8 µM,0.527
same,relative viability,NCI-H647; first compound 0.08 µM,0.423
same,relative viability,NCI-H647; first compound 0.8 µM,0.59
same,relative viability,NCI-H647; first compound 2.53 µM,0.403
same,relative viability,NCI-H647; first compound 8 µM,0.285
same,relative viability,NCI-H520; first compound 0.08 µM,0.346
same,relative viability,NCI-H520; first compound 0.8 µM,0.386
same,relative viability,NCI-H520; first compound 2.53 µM,0.418
same,relative viability,NCI-H520; first compound 8 µM,0.361
same,relative viability,HOP-62; first compound 0.08 µM,0.883
same,relative viability,HOP-62; first compound 0.8 µM,0.964
same,relative viability,HOP-62; first compound 2.53 µM,0.433
same,relative viability,HOP-62; first compound 8 µM,0.503
same,relative viability,NCI-H441; first compound 0.08 µM,0.437
same,relative viability,NCI-H441; first compound 0.8 µM,0.549
same,relative viability,NCI-H441; first compound 2.53 µM,0.476
same,relative viability,NCI-H441; first compound 8 µM,0.505
same,relative viability,LOU-NH91; first compound 0.08 µM,0.543
same,relative viability,LOU-NH91; first compound 0.8 µM,0.597
same,relative viability,LOU-NH91; first compound 2.53 µM,0.552
same,relative viability,LOU-NH91; first compound 8 µM,0.459
same,relative viability,HCC-44; first compound 0.08 µM,0.62
same,relative viability,HCC-44; first compound 0.8 µM,0.61
same,relative viability,HCC-44; first compound 2.53 µM,0.678
same,relative viability,HCC-44; first compound 8 µM,0.7
same,relative viability,NCI-H1437; first compound 0.08 µM,0.469
same,relative viability,NCI-H1437; first compound 0.8 µM,0.48
same,relative viability,NCI-H1437; first compound 2.53 µM,0.5
same,relative viability,NCI-H1437; first compound 8 µM,0.364
same,relative viability,NCI-H2126; first compound 0.08 µM,0.482
same,relative viability,NCI-H2126; first compound 0.8 µM,0.424
same,relative viability,NCI-H2126; first compound 2.53 µM,0.523
same,relative viability,NCI-H2126; first compound 8 µM,0.467
same,relative viability,NCI-H1793; first compound 0.08 µM,0.344
same,relative viability,NCI-H1793; first compound 0.8 µM,0.366
same,relative viability,NCI-H1793; first compound 2.53 µM,0.361
same,relative viability,NCI-H1793; first compound 8 µM,0.218
same,relative viability,ChaGo-K-1; first compound 0.08 µM,1
same,relative viability,ChaGo-K-1; first compound 0.8 µM,1.22
same,relative viability,ChaGo-K-1; first compound 2.53 µM,0.626
same,relative viability,ChaGo-K-1; first compound 8 µM,0.428
same,relative viability,NCI-H2170; first compound 0.08 µM,0.307
same,relative viability,NCI-H2170; first compound 0.8 µM,0.325
same,relative viability,NCI-H2170; first compound 2.53 µM,0.366
same,relative viability,NCI-H2170; first compound 8 µM,0.286
same,relative viability,LCLC-103H; first compound 0.08 µM,0.591
same,relative viability,LCLC-103H; first compound 0.8 µM,0.652
same,relative viability,LCLC-103H; first compound 2.53 µM,0.614
same,relative viability,LCLC-103H; first compound 8 µM,0.677
same,relative viability,NCI-H2023; first compound 0.08 µM,0.269
same,relative viability,NCI-H2023; first compound 0.8 µM,0.242
same,relative viability,NCI-H2023; first compound 2.53 µM,0.211
same,relative viability,NCI-H2023; first compound 8 µM,0.243
same,relative viability,NCI-H460; first compound 0.08 µM,0.377
same,relative viability,NCI-H460; first compound 0.8 µM,0.409
same,relative viability,NCI-H460; first compound 2.53 µM,0.476
same,relative viability,NCI-H460; first compound 8 µM,0.48
same,relative viability,NCI-H2009; first compound 0.08 µM,0.947
same,relative viability,NCI-H2009; first compound 0.8 µM,1.09
same,relative viability,NCI-H2009; first compound 2.53 µM,0.659
same,relative viability,NCI-H2009; first compound 8 µM,0.679
same,relative viability,NCI-H650; first compound 0.08 µM,0.939
same,relative viability,NCI-H650; first compound 0.8 µM,1.1
same,relative viability,NCI-H650; first compound 2.53 µM,1.06
same,relative viability,NCI-H650; first compound 8 µM,0.896
same,relative viability,NCI-H2405; first compound 0.08 µM,0.555
same,relative viability,NCI-H2405; first compound 0.8 µM,0.59
same,relative viability,NCI-H2405; first compound 2.53 µM,0.439
same,relative viability,NCI-H2405; first compound 8 µM,0.323
same,relative viability,PC-14; first compound 0.08 µM,0.669
same,relative viability,PC-14; first compound 0.8 µM,0.804
same,relative viability,PC-14; first compound 2.53 µM,1.16
same,relative viability,PC-14; first compound 8 µM,0.717
same,relative viability,NCI-H23; first compound 0.08 µM,0.51
same,relative viability,NCI-H23; first compound 0.8 µM,0.573
same,relative viability,NCI-H23; first compound 2.53 µM,0.475
same,relative viability,NCI-H23; first compound 8 µM,0.479
same,relative viability,EPLC-272H; first compound 0.08 µM,0.319
same,relative viability,EPLC-272H; first compound 0.8 µM,0.427
same,relative viability,EPLC-272H; first compound 2.53 µM,0.334
same,relative viability,EPLC-272H; first compound 8 µM,0.276
same,relative viability,EMC-BAC-2; first compound 0.08 µM,0.498
same,relative viability,EMC-BAC-2; first compound 0.8 µM,0.533
same,relative viability,EMC-BAC-2; first compound 2.53 µM,0.442
same,relative viability,EMC-BAC-2; first compound 8 µM,0.476
same,relative viability,NCI-H2347; first compound 0.08 µM,0.64
same,relative viability,NCI-H2347; first compound 0.8 µM,0.886
same,relative viability,NCI-H2347; first compound 2.53 µM,0.924
same,relative viability,NCI-H2347; first compound 8 µM,0.592
same,relative viability,NCI-H727; first compound 0.08 µM,0.359
same,relative viability,NCI-H727; first compound 0.8 µM,0.526
same,relative viability,NCI-H727; first compound 2.53 µM,0.355
same,relative viability,NCI-H727; first compound 8 µM,0.51
